The target of assay [1] is T1, Gastrin receptor (gastric glands) (Cavia porcellus, UniProt H0VZC5).
T1 construct: The washed guinea pig gastric glands prepared as above were resuspended; from tissue; host or cells: guinea pig gastric mucosal glands (male Hartley)
T1 sequence (H0VZC5 1-426): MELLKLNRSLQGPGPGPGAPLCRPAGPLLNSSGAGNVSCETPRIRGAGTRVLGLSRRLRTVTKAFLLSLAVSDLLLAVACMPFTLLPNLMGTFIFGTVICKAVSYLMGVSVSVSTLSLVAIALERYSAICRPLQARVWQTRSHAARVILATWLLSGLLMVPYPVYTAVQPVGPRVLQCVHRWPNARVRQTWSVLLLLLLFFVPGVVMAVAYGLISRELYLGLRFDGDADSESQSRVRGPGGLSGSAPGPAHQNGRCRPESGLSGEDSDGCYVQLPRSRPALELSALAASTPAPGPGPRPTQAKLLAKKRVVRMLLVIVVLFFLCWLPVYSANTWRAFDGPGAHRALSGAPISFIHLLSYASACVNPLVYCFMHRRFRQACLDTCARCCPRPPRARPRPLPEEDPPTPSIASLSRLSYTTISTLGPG
The experiment in a line: Gastrin Receptor Binding in Guinea Pig Gastric Glands. Set-up: species or system guinea pig (male Hartley).

Assay [2] has as its target T2, CCK receptor (brain, cerebral cortex) (Cavia porcellus, UniProt H0VZC5).
T2 construct: Cerebral cortex was dissected and used as a receptor source; from tissue; host or cells: guinea pig cerebral cortex membranes (male Hartley)
T2 sequence (H0VZC5 1-426): T1 sequence (H0VZC5 1-426)
The experiment in a line: biochemical. Format: binding, Male Hartley guinea pigs. The procedure, abridged: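 Guinea pig cerebral cortex homogenate as receptor source, with radiolabeled CCK-33 in HEPES buffer containing MgCl2, bacitracin, EGTA and 0.4% BSA. Incubation 2 h at 25°C; bound ligand pelleted by centrifugation and gamma-counted.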

The target of assay [3] is T3, CCK receptor (pancreas) (Rattus norvegicus, UniProt P30551).
T3 construct: The whole pancreas was dissected free of fat tissue and was homogenized; from tissue; host or cells: rat pancreas membranes (Sprague-Dawley)
T3 sequence (P30551 1-444): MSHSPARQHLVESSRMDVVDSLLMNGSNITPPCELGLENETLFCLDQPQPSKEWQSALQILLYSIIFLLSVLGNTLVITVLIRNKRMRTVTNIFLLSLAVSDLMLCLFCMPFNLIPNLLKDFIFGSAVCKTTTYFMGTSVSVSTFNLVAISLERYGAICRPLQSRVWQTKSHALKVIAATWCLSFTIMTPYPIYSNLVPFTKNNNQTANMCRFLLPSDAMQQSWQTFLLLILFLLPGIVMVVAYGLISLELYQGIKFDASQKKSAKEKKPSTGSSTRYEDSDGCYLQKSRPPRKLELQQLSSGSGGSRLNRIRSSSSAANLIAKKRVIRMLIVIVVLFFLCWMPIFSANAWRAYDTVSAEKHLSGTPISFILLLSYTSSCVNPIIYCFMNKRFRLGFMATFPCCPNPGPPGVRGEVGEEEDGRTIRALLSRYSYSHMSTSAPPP
Briefly: CCK Receptor Binding (Pancreas): inhibition of ^125 I-CCK-33 binding. Set-up: species or system Male Sprague-Dawley rats. The gist of the method:
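Rat (male Sprague-Dawley) pancreatic membranes in 50 mM Tris HCl pH 7.7 with DTT, bacitracin, PMSF and o-phenanthroline; ^125I-Bolton Hunter-labelled CCK-33 as radioligand. Incubation 30 min at 37° C, separation by centrifugation, pellet gamma-counted; Scatchard analysis by diluting ^125I-CCK-33 with increasing CCK-33.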

Setting [4] is: IC50 ^125 I-Gastrin Gastric Glands, 25° C., 30 minutes.
Where [5] appears, read: IC50 ^125 I-CCK Brain, guinea pig cerebral cortex, ^125 I-CCK-33, 25° C., 2 hours.
[6] abbreviates: IC50 ^125 I-CCK Pancreas, rat pancreas membranes, ^125 I-CCK-33, 37° C., 30 minutes.
[7] abbreviates: ^125 I-gastrin, 25° C., 30 minutes, read-out: IC50 ^125 I-Gastrin Gastric Glands.
Setting [8] is: guinea pig cerebral cortex, ^125 I-CCK-33, 25° C., 2 hours; read-out: IC50 ^125 I-CCK Brain.
The mark [9] stands for this setting: rat pancreas membranes, ^125 I-CCK-33, 37° C., 30 minutes; read-out: IC50 ^125 I-CCK Pancreas.

Read-outs that look alike come from different tables or passages of the source.

By IC50 is commonly meant the concentration at which inhibition is half-maximal. As to `NCC1N=C(c2ccccc2F)c2ccccc2NC1=O` (racemic) [Example 63, 1,3-Dihydro-5-(2'-fluorophenyl)-3(RS)-aminomethyl-2H-1,4-benzodiazepin-2-on], the IC50 is above 1000 µM in assay [1] (setting [4]), above 100 µM in assay [2] (setting [5]) and above 100 µM in assay [3] (setting [6]).
For `CCN(CC)C(=O)CN1C(=O)C(NC(=O)Nc2ccccc2Cl)N=C(c2ccccc2)c2ccccc21` (stereo not drawn) [Example 286, 3-{[((2-Chlorophenyl)amino)carbonyl]amino}-N,N-diethyl-2,3-dihydro-2-oxo-5-phenyl-1H-1,4-benzodiazepine-1-acetamide], the IC50 is 0.0015 µM in assay [1] (setting [7]), 0.0038 µM in assay [2] (setting [8]) and above 0.1 µM in assay [3] (setting [6]).
`COc1cccc(NC(=O)NC2N=C(c3ccccc3)c3ccccc3N(C)C2=O)c1` (stereo not drawn) [Example 247, N-(2,3-Dihydro-1-methyl-2-oxo-5-phenyl-1H-1,4-benzodiazepin-3-yl)-N'-(3-methoxyphenyl)-urea]: the values for the IC50 in assay [1] (setting [7]), in assay [2] (setting [5]) and in assay [3] (setting [9]) were 0.0016 µM, 0.003 µM and 0.0062 µM, respectively.
`CN1C(=O)C(NC(=O)Oc2ccc([N+](=O)[O-])cc2)N=C(c2ccccc2F)c2ccccc21` (stereo not drawn) [Example 245, (5-(2-Fluorophenyl)-2,3-dihydro-1-methyl-2-oxo-1H-1,4-benzodiazepin-3-yl)-carbamic acid-4-nitrophenyl ester]: the IC50 in assay [1] (setting [4]) amounted to 12 µM; in assay [2] (setting [5]), 92 µM; in assay [3] (setting [6]) it was 7.2 µM.
For the molecule `CN1C(=O)[C@H](NC(=O)c2cc3ccccc3[nH]2)N=C(c2ccccc2F)c2ccccc21` [Example 89, 3(R)-(-)-1,3-Dihydro-5-(2-fluorophenyl)-3-(2-indole-carbonylamino)-1-methyl-2H-1,4-benzodiazepin-2-one], the results for the IC50 in assay [1] (setting [7]), in assay [2] (setting [5]) and in assay [3] (setting [9]) were 0.24 µM, 1.1 µM and 0.019 µM, respectively.
The like results for `CN1C(=O)C(NC(=O)Nc2ccc(Cl)cc2)N=C(c2ccccc2)c2ccccc21` (stereo not drawn) [Example 217] were, in that order, 0.022 µM, 0.023 µM and 0.051 µM.
Consider `O=C1Nc2ccc(Cl)cc2C(c2ccccc2)=N[C@@H]1Cc1cn(-c2ccc([N+](=O)[O-])cc2[N+](=O)[O-])cn1` [Example 55, 7-Chloro-1,3-dihydro-3(R)-[(3'-(2,4-dinitrophenyl)imidazol-5'-yl)-methyl]-5-phenyl-2H-1,4-benzodiazepin-2-one], for which the IC50 worked out at 76 µM in assay [1] (setting [7]), 38.6 µM in assay [2] (setting [8]) and 7.6 µM in assay [3] (setting [6]).
With `CN1C(=O)[C@@H](NC(=O)c2ccc(C(F)(F)F)cc2)N=C(c2ccccc2)c2ccccc21` [Example 203, (S)-N-(2,3-Dihydro-1-methyl-2-oxo-5-phenyl-1H-1,4-benzodiazepin-3-yl)-4-(trifluoromethyl)-benzamide], the IC50 is 6.2 µM in assay [1] (setting [7]), 4.6 µM in assay [2] (setting [5]) and 0.0013 µM in assay [3] (setting [9]).
In the case of `CN1C(=O)[C@H](NC(=O)c2cccc(I)c2)N=C(c2ccccc2F)c2ccccc21` [Example 168, 3(R)-(-)-1,3-Dihydro-5-(2-fluorophenyl)-3-(3-iodobenzoylamino)-1-methyl-2H-1,4-benzodiazepin-2-one], the IC50 in assay [1] (setting [7]) is 2 µM; in assay [2] (setting [8]) it was 2.4 µM; in assay [3] (setting [9]) it was 0.015 µM.
With `COc1cccc(NC(=O)NC2N=C(c3ccc(C)cc3)c3ccccc3N(C)C2=O)c1` (stereo not drawn) [Example 292, N-(3-Methoxyphenyl)-N'-(2,3-dihydro-1-methyl-2-oxo-5-(p-tolyl)-1H-1,4-benzodiazepin-3-yl)-urea], the figures for the IC50 in assay [1] (setting [7]), in assay [2] (setting [8]) and in assay [3] (setting [6]) were 0.0115 µM, 0.0035 µM and 0.001 µM, respectively.
As to `CN1C(=O)[C@@H](Cc2cn(C(=O)c3ccc(Cl)cc3)c3ccccc23)N=C(c2ccccc2F)c2ccccc21` [Example 45, 1,3-Dihydro-5-(2-fluorophenyl)-3(R)-[3'-(1'-p-chlorobenzyloylindolyl)methyl]-1-methyl-2H-1,4-benzodiazepin-2-one], the concentration for half-maximal inhibition (IC50) in assay [1] (read-out: IC50 ^125 I-Gastrin Gastric Glands, 25° C., 30 minutes) was above 1000 µM; in assay [2] (read-out: IC50 ^125 I-CCK Brain; guinea pig cerebral cortex, ^125 I-CCK-33, 25° C., 2 hours), above 100 µM; in assay [3] (read-out: IC50 ^125 I-CCK Pancreas; rat pancreas membranes, ^125 I-CCK-33, 37° C., 30 minutes), 10.6 µM.
`CN1C(=O)C(C(O)c2c[nH]c3ccccc23)N=C(c2ccccc2)c2ccccc21` (racemic) [Example 47, 1,3-Dihydro-3(RS)-[1-hydroxy-1-(3'-indolyl)]methyl-1-methyl-5-phenyl-2H-1,4-benzodiazepin-2-one]: the values for the IC50 in assay [1] (setting [7]), in assay [2] (setting [8]) and in assay [3] (setting [6]) were 24 µM, 40 µM and 24 µM, respectively.
Turning to `COc1cccc(CC(=O)N[C@H]2N=C(c3ccccc3)c3ccccc3N(C)C2=O)c1` [Example 268, (S)-N-(2,3-Dihydro-1-methyl-2-oxo-5-phenyl-1H-1,4-benzodiazepin-3-yl)-3-methoxybenzeneacetamide], the IC50 in assay [1] (setting [7]) is 0.42 µM; in assay [2] (setting [8]), 2.1 µM; in assay [3] (setting [6]), 0.33 µM.
Consider `COc1ccccc1NC(=O)NC1N=C(c2ccccc2)c2ccccc2N(C)C1=O` (stereo not drawn) [Example 278, N-(2,3-Dihydro-1-methyl-2-oxo-5-phenyl-1H-1,4-benzodiazepin-3-yl)-N'-(2-methoxyphenyl)-urea], for which the figures for the IC50 in assay [1] (setting [7]), in assay [2] (setting [8]) and in assay [3] (setting [9]) were 1 µM, 1.2 µM and 0.6 µM, respectively.
Turning to `CN1CCN(C(=O)CN2C(=O)C(NC(=O)Nc3ccc(Cl)cc3)N=C(c3ccccc3)c3ccccc32)CC1` (stereo not drawn) [Example 237, 1-((3-((((4-Chlorophenyl)amino)carbonyl)amino)-2,3-dihydro-2-oxo-5-phenyl-1H-1,4-benzodiazepin-1-yl)acetyl)-4-methylpiperazine], the IC50 in assay [1] (setting [7]) came out at 0.0026 µM; in assay [2] (setting [8]) it was 0.008 µM; in assay [3] (setting [9]), 1.2 µM.
For `CC1=C(C(=O)NC2N=C(c3ccccc3F)c3ccccc3NC2=O)Cc2ccccc21` (racemic) [Example 115, 1,3-Dihydro-3-(RS)-(3'-methylindenyl-2-carbonyl)amino-5-(2-fluorophenyl)-2H-1,4-benzodiazepin-2-one], the IC50 in assay [1] (setting [7]) is above 10 µM; in assay [2] (setting [8]) it was 3.5 µM; in assay [3] (setting [6]), 0.022 µM.
Consider `CSC1=N[C@@H](Cc2cn(C)c3ccccc23)C(=O)N(C)c2ccccc21` [Example 7, 1,3-Dihydro-3(S)-[3'-(1'-methylindolyl)methyl]-1-methyl-5-methylthio-2H-1,4-benzodiazepin-2-one], for which the IC50 is above 100 µM in assay [1] (setting [7]), 100 µM in assay [2] (setting [8]) and above 100 µM in assay [3] (setting [9]).
Take `CN1C(=O)C(NC(=O)Nc2ccc([N+](=O)[O-])cc2)N=C(c2ccccc2)c2ccccc21` (stereo not drawn) [Example 256, N-(4-Nitrophenyl)-N'-(2,3-dihydro-1-methyl-2-oxo-5-phenyl-1H-1,4-benzodiazepin-3-yl)-urea]: the IC50 was 0.0098 µM in assay [1] (setting [7]), 0.046 µM in assay [2] (setting [8]) and 0.21 µM in assay [3] (setting [9]).
For `CN1C(=O)[C@@H](NC(=O)c2ccc(C(F)(F)F)cc2)N=C(c2ccccc2F)c2ccccc21` [Example 219, (S)-N-(5-(2-Fluorophenyl)-2,3-dihydro-1-methyl-2-oxo-1H-1,4-benzodiazepin-3-yl)-4-(trifluoromethyl)-benzamide], the figures for the 50% inhibitory concentration (IC50) in assay [1] (setting [7]), in assay [2] (setting [5]) and in assay [3] (setting [6]) were 0.44 µM, 1.4 µM and 0.0005 µM, respectively.
Take `COc1cccc(NC(=O)NC2N=C(c3ccccc3)c3ccc(C)cc3N(C)C2=O)c1` (stereo not drawn) [Example 295, N-(3-Methoxyphenyl)-N'-(2,3-dihydro-1,8-dimethyl-2-oxo-5-phenyl-1H-1,4-benzodiazepin-3-yl)-urea]: the IC50 came to 0.034 µM in assay [1] (setting [7]), 0.015 µM in assay [2] (setting [8]) and 0.003 µM in assay [3] (setting [6]).

(Values after patent US4820834A, “Benzodiazepine analogs” (priority 1987, dated 1989).)
